Reference: ChEMBL document CHEMBL3217503, “Antivascular and anticancer activity of dihalogenated A-ring analogues of combretastatin A-4” (Medchemcomm, 2010)
pEC50: −log10 of the molar value. The source made the active and inactive calls. The rule behind the calls is not given here.

How the values were obtained:
HUVEC [1] = test: Antivascular activity in growth factor-induced HUVEC after 24 hrs xCELLigence analysis; type: functional, cell-based; details: Homo sapiens
HUVEC [2] = test: Antivascular activity in growth factor-induced HUVEC after 45 hrs xCELLigence analysis; type: functional, cell-based; details: Homo sapiens
SK-OV-3 [3] = test: Cell cycle arrest in human SKOV3 cells assessed as accumulation at G1 phase at 5 nM after 24 hrs by propidium iodide staining-based flow cytometry (reference value: 54.4%); type: functional
SK-OV-3 [4] = test: Cell cycle arrest in human SKOV3 cells assessed as accumulation at S phase at 5 nM after 24 hrs by propidium iodide staining-based flow cytometry (reference value: 31.2%); type: functional
SK-OV-3 [5] = test: Cell cycle arrest in human SKOV3 cells assessed as accumulation at G2/M phase at 5 nM after 24 hrs by propidium iodide staining-based flow cytometry (reference value: 13.6%); type: functional
K562 = test: Cytotoxicity against human K562 cells; type: functional, cell-based
SK-OV-3 [6] = test: Cell cycle arrest in human SKOV3 cells assessed as accumulation at G2/M phase at 200 nM after 24 hrs by propidium iodide staining-based flow cytometry (reference value: 13.6%); type: functional
HeLa [7] = test: Antimitotic activity in human HeLa cells assessed as depolymerisation of interphase microtubule network at 10 to 100 nM after 16 hrs by Hoechst staining-based confocal microscopy; type: functional, cell-based
HeLa [8] = test: Antimitotic activity in human HeLa cells assessed as change in interphase microtubule network at 1 nM after 16 hrs by Hoechst staining-based confocal microscopy; type: functional, cell-based
HUVEC [9] = test: Antiproliferative activity against growth factor-induced HUVEC assessed as growth inhibition after 48 hrs by MTS assay; type: functional, cell-based; details: Homo sapiens
SK-OV-3 [10] = test: Cytotoxicity against human SKOV3 cells assessed as cell viability after 48 hrs by MTS assay; type: functional, cell-based; details: SK-OV-3, 48 h
HeLa [11] = test: Cytotoxicity against human HeLa cells assessed as cell viability after 48 hrs by MTS assay; type: functional, cell-based
SK-OV-3 [12] = test: Cytotoxicity against taxol-resistant human SKOV3 cells assessed as cell viability after 48 hrs by MTS assay; type: functional, cell-based; details: SK-OV-3, 48 h
PBMC = test: Cytotoxicity in human PBMC assessed as cell viability up to 10 uM after 48 hrs by MTS assay; type: cell-based
HeLa [13] = test: Antimitotic activity in human HeLa cells assessed as depolymerisation of interphase microtubule network at 0.1 to 1 uM after 16 hrs by Hoechst staining-based confocal microscopy; type: functional, cell-based
HeLa [14] = test: Antimitotic activity in human HeLa cells assessed as membrane blebbing at 0.1 to 1 uM after 16 hrs by Hoechst staining-based confocal microscopy; type: functional, cell-based
HeLa [15] = test: Antimitotic activity in human HeLa cells assessed as redistribution of microtubules around nuclear envelope of cells at 100 nM after 16 hrs by Hoechst staining-based confocal microscopy; type: functional, cell-based
HeLa [16] = test: Antimitotic activity in human HeLa cells assessed as disproportionate mitotic cells at 10 nM after 16 hrs by Hoechst staining-based confocal microscopy; type: functional, cell-based
SK-OV-3 [17] = test: Antimitotic activity in human SKOV3 cells at 1 to 100 nM after 16 hrs by Hoechst staining-based confocal microscopy; type: functional, cell-based
SK-OV-3 [18] = test: Antimitotic activity in taxol-resistant human SKOV3 cells at 1 to 100 nM after 16 hrs by Hoechst staining-based confocal microscopy; type: functional, cell-based
HeLa [19] = test: Antimitotic activity in human HeLa cells expressing GFP-tagged tubulin assessed as membrane blebbing during interphase at 10 to 100 nM after 31 to 34 mins by fluorescence-based spinning-disk confocal microscopy; type: functional, cell-based
HeLa [20] = test: Antimitotic activity in human HeLa cells expressing GFP-tagged tubulin assessed as disappearance of mitotic spindle during metaphase at 10 to 100 nM after 21 to 36 mins by fluorescence-based spinning-disk confocal microscopy; type: functional, cell-based
HeLa [21] = test: Antimitotic activity in human HeLa cells expressing GFP-tagged tubulin assessed as collapse of mitotic spindle during anaphase at 10 nM after 31 mins by fluorescence-based spinning-disk confocal microscopy; type: functional, cell-based
HeLa [22] = test: Antimitotic activity in human HeLa cells expressing GFP-tagged tubulin assessed as membrane blebbing during interphase at 10 nM after 51 mins by fluorescence-based spinning-disk confocal microscopy; type: functional, cell-based

Row | Compound | pEC50 (HUVEC [1]) | pEC50 (HUVEC [2]) | Activity (SK-OV-3 [3]) | Activity (SK-OV-3 [4]) | Activity (SK-OV-3 [5]) | pEC50 (K562) | further results
1 | COc1ccc(/C=C\c2cc(I)c(OC)c(I)c2)cc1O | 9.05 | 9.05 | 1.3% | 12.9% | 83.6% | – | –
2 | COc1ccc(/C=C\c2cc(C)c(C)c(C)c2)cc1O | – | – | – | – | – | 7.70 | –
3 | COc1ccc(/C=C\c2cc(Cl)c(OC)c(Cl)c2)cc1O | 8.59 | 8.64 | 43.7% | 18.6% | 32.2% | – | –
4 | COc1ccc(/C=C\c2cc(F)c(OC)c(F)c2)cc1O | 6.71 | 6.65 | – | – | – | – | Activity (SK-OV-3 [6]): 73.7%
5 | COc1ccc(/C=C\c2cc(OC)c(OC)c(OC)c2)cc1O [COMBRETASTATIN A4] | 8.72 | 9.05 | 40.1% | 23.1% | 30.5% | 9.00 | Activity (HeLa [7]): Active; Activity (HeLa [8]): inactive; pEC50 (HUVEC [9]): 8.49; pEC50 (SK-OV-3 [10]): 8.92; pEC50 (HeLa [11]): 8.85; pEC50 (SK-OV-3 [12]): 8.51; Activity (PBMC): Non-toxic
6 | COc1ccc(/C=C\c2ccccc2)cc1O | – | – | – | – | – | 6.30 | –
7 | COc1ccc(/C=C\c2cc(Br)c(OC)c(Br)c2)cc1O | 8.66 | 8.96 | 25.7% | 21% | 51.5% | – | Activity (HeLa [13]): Active; Activity (HeLa [14]): Active; Activity (HeLa [15]): Active; Activity (HeLa [16]): Active; Activity (SK-OV-3 [17]): Active; Activity (SK-OV-3 [18]): Active; Activity (HeLa [19]): Active; Activity (HeLa [20]): Active; Activity (HeLa [21]): Active; Activity (HeLa [22]): Active; pEC50 (HUVEC [9]): 9.70; pEC50 (SK-OV-3 [10]): 8.77; pEC50 (HeLa [11]): 8.17; pEC50 (SK-OV-3 [12]): 8.96; Activity (PBMC): Non-toxic
8 | COc1ccc(/C=C\c2ccc(C)c(C)c2)cc1O | – | – | – | – | – | 7.15 | –
